From patent US9913873B2, “Turmeric extract containing soft pastilles” (priority 2013, dated 2018)

Assay: Preliminary finding on bioavailability of pure curcumin

In the case of `COc1cc(/C=C/C(=O)CC(=O)/C=C/c2ccc(O)c(OC)c2)ccc1O` [Curcumin], the Bioavailability is reported as “poor”.
